Results on 10 compounds are retold here after patent US8338460B2, “2-pyridinecarboxamide derivative having GK-activating effect” (MSD K. K., priority 2006, dated 2012).

Converted amounts (≈) assume the structure as drawn.

The nature of data set [1]: Comparative test of solubility. It is filed as physicochemical. Conditions: water, thermodynamic from solid.
Data set [2] concerns the target T1, recombinant human liver GK (Homo sapiens, UniProt P35557).
T1 construct: made in house; host or cells: E. coli
T1 sequence (P35557 1-466 isoform P35557-2): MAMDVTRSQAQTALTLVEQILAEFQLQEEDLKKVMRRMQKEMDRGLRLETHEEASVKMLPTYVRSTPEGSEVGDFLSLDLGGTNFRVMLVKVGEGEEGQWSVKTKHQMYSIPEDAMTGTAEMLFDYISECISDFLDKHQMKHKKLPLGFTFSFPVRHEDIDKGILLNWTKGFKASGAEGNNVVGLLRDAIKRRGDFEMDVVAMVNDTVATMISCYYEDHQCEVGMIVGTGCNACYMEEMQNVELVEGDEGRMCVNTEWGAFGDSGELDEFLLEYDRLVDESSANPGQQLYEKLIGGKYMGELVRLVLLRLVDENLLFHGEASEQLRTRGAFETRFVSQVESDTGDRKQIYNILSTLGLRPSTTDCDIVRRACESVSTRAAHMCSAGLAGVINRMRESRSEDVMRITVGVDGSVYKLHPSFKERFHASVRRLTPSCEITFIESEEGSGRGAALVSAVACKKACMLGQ
The data set can be described thus: Glucokinase-activating effect (Thio-NADH coupled assay with G6PDH). It is filed as biochemical. Conditions: 2.5 mM glucose, 30° C. From the text:
Pharmacological Experiment 1 (Glucokinase-Activating Effect)
The excellent glucokinase-activating effect of the compounds of formula (I) may be determined by a method described in references (for example, Diabetes, Vol. 45, pp. 1671-1677, 1996), or in accordance with it.
The glucokinase activity may be determined not by directly measuring glucose-6-phosphate but by measuring the level of Thio-NADH, which is produced when a reporter enzyme, glucose-6-phosphate dehydrogenase produces phosphogluconolactone from glucose-6-phosphate, and based on the level, the degree of glucokinase activation by the compound tested may be determined.
In this assay, used was a recombinant human liver GK, which was expressed by E. coli as a FLAG fusion protein therein and was purified by ANTIFLAG M2 AFFINITY GEL (Sigma).
Using a flat-bottomed 96-well plate, the assay was carried out at 30° C. 69 μl of an assay buffer (25 mM Hepes Buffer/pH=7.2, 2 mM MgCl2, 1 mM ATP, 0.5 mM TNAD, 1 mM dithiothreitol) was put into the plate, and 1 μl of a DMSO solution of the compound or DMSO alone as a control was added thereto. Next, 20 μl of an enzyme mixture (FLAG-GK, 20 U/ml G6PDH) cooled in ice was added to it, and 10 μl of a substrate, 25 mM glucose was added to it, and the reaction was initiated (final glucose concentration=2.5 mM).
After the start of the reaction, the increase in the absorbance at 405 nm was measured for 12 minutes at intervals of 30 seconds, and the increase for the first 5 minutes was used for assessing the compound tested. FLAG-GK was added so that the absorbance increase after 5 minutes in the presence of 1% DMSO could be from 0.04 to 0.06.
The OD level of the DMSO control was set as 100%; and the OD level of the test compound at different concentrations was determined. From the OD level at each concentration, Emax (%) and EC50 (μM) were computed and used as the index of the GK-activating potency of the compound.

Data set [3] can be described thus: Comparative test of solubility. The class given is physicochemical. Conditions: shaken 75 min; for solubility thermodynamic at 75 min: 200 mM potassium phosphate buffer, pH 7.4, aqueous buffer, read-out: Solibility to 200 mM potassium phosphate buffer; for solubility thermodynamic at 75 min / solubility at 75 min: thermodynamic from solid; for solubility at 75 min: JP-1 artificial gastric fluid, pH 1.2, simulated gastric fluid, JP-1 pH1.2 (artificial gastric fluid), 1 mg in 1 ml. As for the experimental part:
Experiment 3 (Comparative Test of Solubility)
1 mg of compounds were placed in 1 ml of medium (JP-1, […] potassium phosphate buffer) and was shaken on a shaking-incubator for 75 min. (1000 rpm). After centrifugation, concentration of supernatant was analyzed by HPLC.
JP1: pH1.2 (artificial gastric fluid: 35 mM NaCl, 84 mM HCl in water)
2.0 g of NaCl, 7.0 ml of HCl and water were mixed in a measuring flask (1000 ml).
200 mM potassium phosphate buffer: pH7.4
200 mM K2HPO4 and 200 mM KH2PO4 were mixed and adjusted to pH7.4 by using pH meter.

A further data set has as its system Male beagle dogs. Briefly: Pharmacological test in dog: plasma glucose after oral administration. It is filed as in vivo. The settings on record: AUC for 4 hr after administration, fasted male beagle dogs. The protocol:
Pharmacological Experiment 2 (Pharmacological Test in Dog)
Male beagle dogs (BW 9.6-13.8 kg) were fasted overnight. Pre-dose blood sampling was performed from cephalic vein. The test drugs, which were suspended into 0.5% methylcellulose, were orally administrated (example 1 at 0.25, 0.5 and 1 mg/kg, and example 4, and compound B at 1 mg/kg). Control group was given 0.5% methylcellulose alone. Blood was taken every 0.5 or 1 hour after the drug dosing. Plasma sample were obtained by centrifugation, and the plasma glucose levels were measured by “Determiner GL-E” (Kyowa Medex Co., Ltd. Japan).

As to `Cc1nsc(NC(=O)c2nc(Sc3nncn3C)ccc2Sc2ccc(OCCN3CCCCC3)cc2)n1` [Example 26, N-(3-methyl-1,2,4-thiadiazol-5-yl)-6-[(4-methyl-4H-1,2,4-triazol-3-yl)thio]-3-{[4-(2-piperidin-1-ylethoxy)phenyl]thio}pyridine-2-carboxamide], the solubility at 75 min in data set [1] is 176 µg/mL (≈ 309 µM); in data set [3] it was greater than 1000 µg/mL. Moreover, the EC50 in data set [2] amounted to 70 nM. Further, the solubility thermodynamic at 75 min in data set [3] (pH7.4, 1 mg in 1 ml) was 239 µg/mL (≈ 421 µM).
Consider `CCN1CC(Oc2ccc(Sc3ccc(Sc4nncn4C)nc3C(=O)Nc3nc(C)ns3)cc2)C1` [Example 25, 3-({4-[(1-ethylazetidin-3-yl)oxy]phenyl}thio)-N-(3-methyl-1,2,4-thiadiazol-5-yl)-6-[(4-methyl-4H-1,2,4-triazol-3-yl)thio]pyridine-2-carboxamide], for which, in the data set with Male beagle dogs (1 mg/kg oral), the “% Reduction of plasma glucose AUC” value is listed as 42.1%. Further, the solubility at 75 min is 16.4 µg/mL (≈ 30.3 µM) in data set [1] and greater than 1000 µg/mL in data set [3]. For the same compound, the EC50 in data set [2] is 50 nM. Besides, in data set [3] (pH7.4, 1 mg in 1 ml), the solubility thermodynamic at 75 min worked out at 13.8 µg/mL (≈ 25.5 µM).
As to `Cc1nsc(NC(=O)c2nc(Sc3nncn3C)ccc2Sc2ccc(O[C@@H]3CCN(C(C)C)C3)cc2)n1` [Example 20, 3-[(4-{[(3R)-1-isopropylpyrrolidin-3-yl]oxy}phenyl)thio]-N-(3-methyl-1,2,4-thiadiazol-5-yl)-6-[(4-methyl-4H-1,2,4-triazol-3-yl)thio]pyridine-2-carboxamide], the figures for the solubility at 75 min in data set [1] and in data set [3] were 127 µg/mL (≈ 223 µM) and greater than 1000 µg/mL, respectively. Besides, the EC50 in data set [2] was 40 nM. Also, in data set [2] (OD level of DMSO control set as 100%), the Emax came to 964%. Further, the solubility thermodynamic at 75 min in data set [3] (pH7.4, 1 mg in 1 ml) amounted to 86.8 µg/mL (≈ 153 µM).
`Cc1nsc(NC(=O)c2nc(Sc3nncn3C)ccc2Sc2ccc(OC[C@@H]3CCCN3C)cc2)n1` [Example 7, 3-[(4-{[(2S)-1-methylpyrrolidin-2-yl]methoxy}phenyl)thio]-N-(3-methyl-1,2,4-thiadiazol-5-yl)-6-[(4-methyl-4H-1,2,4-triazol-3-yl)thio]pyridine-2-carboxamide]: the solubility at 75 min in data set [1] is 583 µg/mL (≈ 1050 µM); in data set [3] it was greater than 1000 µg/mL. Besides, in data set [2], the 50% effective concentration (EC50) was 60 nM. Also, the solubility thermodynamic at 75 min in data set [3] (pH7.4, 1 mg in 1 ml) stood at 308 µg/mL (≈ 555 µM).
In the same order, the values of `CCN(C)CCOc1ccc(Sc2ccc(Sc3nncn3C)nc2C(=O)Nc2nc(C)ns2)cc1` [Example 23, 3-[(4-{2-[ethyl(methyl)amino]ethoxy}phenyl)thio]-N-(3-methyl-1,2,4-thiadiazol-5-yl)-6-[(4-methyl-4H-1,2,4-triazol-3-yl)thio]pyridine-2-carboxamide] are 208 µg/mL (≈ 383 µM), greater than 1000 µg/mL, 60 nM and 122 µg/mL (≈ 226 µM).
Consider `Cc1nsc(NC(=O)c2nc(Sc3nncn3C)ccc2Sc2ccc(OCCN3CCC[C@H]3C)cc2)n1` [Example 4], for which the “% Reduction of plasma glucose AUC” value with Male beagle dogs (1 mg/kg oral) stood at 26.8%. The solubility at 75 min is 47.4 µg/mL (≈ 83.3 µM) in data set [1] and greater than 1000 µg/mL in data set [3]. The 50% effective concentration (EC50) in data set [2] amounted to 150 nM. The “Solibility to 200 mM potassium phosphate buffer” value in data set [3] (pH7.4, 1 mg in 1 ml) turned out to be 47.3 µg/mL.
Turning to `CCN(CC)CCOc1ccc(Sc2ccc(Sc3nncn3C)nc2C(=O)Nc2nc(C)ns2)cc1` [Example 24, 3-({4-[2-(diethylamino)ethoxy]phenyl}thio)-N-(3-methyl-1,2,4-thiadiazol-5-yl)-6-[(4-methyl-4H-1,2,4-triazol-3-yl)thio]pyridine-2-carboxamide], the figures for the solubility at 75 min in data set [1] and in data set [3] were 230 µg/mL (≈ 414 µM) and greater than 1000 µg/mL, respectively. The EC50 in data set [2] amounted to 40 nM. Further, the solubility thermodynamic at 75 min in data set [3] (pH7.4, 1 mg in 1 ml) is 298 µg/mL (≈ 536 µM).
Regarding `Cc1nsc(NC(=O)c2nc(Sc3nncn3C)ccc2Sc2ccc(CCO)cc2)n1` [(A), reference compound], the figures for the solubility at 75 min in data set [1] and in data set [3] were 2.4 µg/mL (≈ 4.94 µM) and 6.2 µg/mL (≈ 12.8 µM), respectively. Further, the solubility thermodynamic at 75 min in data set [3] (pH7.4, 1 mg in 1 ml) was 3.4 µg/mL (≈ 7 µM).
For the compound `Cc1nsc(NC(=O)c2nc(Sc3nncn3C)ccc2Sc2ccc(OCCN(C)C)cc2)n1` [Example 1, 3-({4-[2-(dimethylamino)ethoxy]phenyl}thio)-N-(3-methyl-1,2,4-thiadiazol-5-yl)-6-[(4-methyl-4H-1,2,4-triazol-3-yl)thio]pyridine-2-carboxamide], the “% Reduction of plasma glucose AUC” value in the data set with Male beagle dogs (0.25 mg/kg oral) was determined as 7.9%; in the data set with Male beagle dogs (0.5 mg/kg oral), 10.6%; in the data set on Male beagle dogs (1 mg/kg oral), 15.7%. Moreover, the solubility at 75 min in data set [1] is 15.2 µg/mL (≈ 28.8 µM); in data set [3], greater than 1000 µg/mL. The concentration for a half-maximal effect (EC50) in data set [2] came to 90 nM. In data set [3] (pH7.4, 1 mg in 1 ml), the solubility thermodynamic at 75 min turned out to be 17.5 µg/mL (≈ 33.1 µM).
Consider `Cc1nsc(NC(=O)c2nc(Sc3nnc[nH]3)ccc2Sc2ccc(OCCN(C)C)cc2)n1` [Compound (B), reference compound], for which the “% Reduction of plasma glucose AUC” value with Male beagle dogs (1 mg/kg oral) turned out to be 7.4%.
